Measured values reported in ChEMBL document CHEMBL3045002, “3,4-Dihydropyrimidin-2(1H)-one derivatives: Organocatalysed microwave assisted synthesis and evaluation of their antioxidant activity” (Med Chem Res, 2012).
Values after ≈ are worked out from the molar mass of the structure shown.

Assays:
Type in all cases: functional
[1] = Antioxidant activity assessed as DPPH scavenging activity after 2 hr by spectrophotometry
[2] = Antioxidant activity in phosphate buffer at pH 6.6 assessed as reducing power measuring conversion of potassium ferricyanide to ferrous form after 10 min by spectrophotometry
[3] = Antioxidant activity assessed as Fe2+ chelating activity after 10 min by spectrophotometry

Row | Compound | IC50 [1] [µg/mL] | EC50 [2] [µg/mL] | EC50 [3] [µg/mL]
1 | CCOC(=O)C1=C(C)NC(=O)NC1c1cccc([N+](=O)[O-])c1 (stereo not drawn) | 27.73 (≈ 90.8 µM) | 339.06 (≈ 1110 µM) | 1.16 (≈ 3.8 µM)
2 | CCOC(=O)C1=C(C)NC(=O)NC1c1ccc(O)cc1 (stereo not drawn) | 2.71 (≈ 9.81 µM) | 61.4 (≈ 222 µM) | 0.89 (≈ 3.22 µM)
3 | O=C(O)CC(O)(CC(=O)O)C(=O)O [CITRIC ACID] | – | – | 0.074 (≈ 0.385 µM)
4 | CCOC(=O)C1=C(C)NC(=O)NC1c1ccc(OC)cc1 (stereo not drawn) | 48.45 (≈ 167 µM) | 171.12 (≈ 589 µM) | 1.55 (≈ 5.34 µM)
5 | COC(=O)C1=C(C)NC(=O)NC1c1ccc(OC)cc1 (stereo not drawn) | 31.69 (≈ 115 µM) | 206 (≈ 746 µM) | 1.92 (≈ 6.95 µM)
6 | COC(=O)C1=C(C)NC(=O)NC1c1ccc([N+](=O)[O-])cc1 (stereo not drawn) | 27.78 (≈ 95.4 µM) | 170.02 (≈ 584 µM) | 1.71 (≈ 5.87 µM)
7 | CCOC(=O)C1=C(C)NC(=O)NC1c1ccc(O)c(OC)c1 (stereo not drawn) | 3.65 (≈ 11.9 µM) | 49.38 (≈ 161 µM) | 0.88 (≈ 2.87 µM)
8 | Cc1cc(C(C)(C)C)c(O)c(C(C)(C)C)c1 [BUTYLATED HYDROXYTOLUENE] | 2.18 (≈ 9.89 µM) | 20 (≈ 90.8 µM) | –
9 | O=C(O)c1cc(O)c(O)c(O)c1 [GALLIC ACID] | 2.06 (≈ 12.1 µM) | 5.25 (≈ 30.9 µM) | –
10 | COC(=O)C1=C(C)NC(=O)NC1c1cccc([N+](=O)[O-])c1 (stereo not drawn) | 27.08 (≈ 93 µM) | 126.35 (≈ 434 µM) | 1.6 (≈ 5.49 µM)
11 | Oc1cc(O)c2c(c1)OC(c1ccc(O)c(O)c1)C(O)C2 (stereo not drawn) [CATECHIN] | 2.12 (≈ 7.3 µM) | 10 (≈ 34.5 µM) | –

The remaining lines, values ahead:

Row | IC50 [1] [µg/mL] | EC50 [2] [µg/mL] | EC50 [3] [µg/mL] | Compound
12 | 3.14 (≈ 12 µM) | 67 (≈ 255 µM) | 0.79 (≈ 3.01 µM) | COC(=O)C1=C(C)NC(=O)NC1c1ccc(O)cc1 (stereo not drawn)
13 | 33.29 (≈ 109 µM) | 238.09 (≈ 780 µM) | 1.86 (≈ 6.09 µM) | CCOC(=O)C1=C(C)NC(=O)NC1c1ccc([N+](=O)[O-])cc1 (stereo not drawn)
14 | 25.04 (≈ 96.2 µM) | 158.9 (≈ 610 µM) | 1.04 (≈ 4 µM) | CCOC(=O)C1=C(C)NC(=O)NC1c1ccccc1 (stereo not drawn)
15 | 5.02 (≈ 17.2 µM) | 57.14 (≈ 195 µM) | 0.9 (≈ 3.08 µM) | COC(=O)C1=C(C)NC(=O)NC1c1ccc(O)c(OC)c1 (stereo not drawn)
16 | 28.43 (≈ 115 µM) | 97.56 (≈ 396 µM) | 2.23 (≈ 9.06 µM) | COC(=O)C1=C(C)NC(=O)NC1c1ccccc1 (stereo not drawn)
